On the set-up of data set [1]: method as in PMID 31400507. The following applies: cited from earlier work; for BCS class: classic BCS, everted gut sac assay.
Data set [2] is described as follows: Pharmacokinetic study in male SD rats (intravenous, oral, oral co-administration with verapamil). Format: in vivo, Sprague–Dawley rats. The following applies: for MRT inf: read-out: MRT0–∞; for Vd/F: read-out: Vz/F. As for the experimental part:
The animal experiment was approved by the Experimental Animal Ethics Committee of Shanghai University of Traditional Chinese Medicine (the Ethics Number: PZSHUTCM201016015). After 7 days of freely feeding the animals to acclimation, the rats were randomly divided into five groups, including the following: PF at an intravenous dose of 2 mg/kg and intragastric administrations of 5 mg/kg, 10 mg/kg, and 20 mg/kg; PF combined with verapamil at doses of 20 mg/kg and 50 mg/kg, respectively. All groups of PF or PF combined with verapamil were dissolved in saline to be completely dissolved or suspended. Blood samples were collected into EDTA−2K anti-coagulant tubes at projected times (0.083, 0.25, 0.5, 1, 2, 4, and 6 h post-dose) and then immediately centrifuged at 5500 rpm at 4 °C for 10 min to obtain the supernatant. The plasma samples were stored at −20 °C prior to analysis.
The plasma drug concentration of the PF was quantitated, according to the calibration curve, by the ratio of the analyte-to-IS peak areas obtained for each sample. Pharmacokinetic parameters, such as elimination half-life (T1/2), the area under the concentration–time curve from time zero to infinity (AUC0–∞), total body clearance (CL), and volume of distribution (Vz), were analyzed by the non-compartment model using WinNonlin software (Version 8.2). Subsequently, the main pharmacokinetic parameters were analyzed by an independent sample t-test. The oral absolute bioavailability was calculated as prescribed by the following equation: F (%) = (AUCp.o. × Dosei.v.)/(AUCi.v. × Dosep.o.) × 100%.

Data set [3] can be described thus: Stability of PF in SD rat plasma under storage conditions. The data set is classed as in vitro ADME. The conditions noted are these: for Freeze-thaw Stability, Measured Conc. / Bench-top Stability, Measured Conc. / Long-term Stability, Measured Conc.: SD rat plasma; for Freeze-thaw Stability, Measured Conc.: 4 cycles at −20 °C; for Freeze-thaw Stability, Measured Conc. / Bench-top Stability, Measured Conc. / Long-term Stability, Measured Conc. / Autosampler Stability, Measured Conc.: n = 6; for Bench-top Stability, Measured Conc.: room temperature for 16 h; for Long-term Stability, Measured Conc.: −20 °C for 90 days; for Autosampler Stability, Measured Conc.: extracted SD rat plasma, 10 °C for 72 h. As for the experimental part:
Stability in the plasma was tested by comparing the two-level QC samples (LQC and HQC) in sextuplicate injections to theoretical concentrations.
The stability of PF in rat plasma was investigated by analyzing QC samples at […]. Long-term stability was tested at −20 °C for at least 30 days; short-term stability was tested at room temperature for at least 6 h; the post-preparative stability test was conducted at 10 °C for 72 […] The determined concentrations should be within ±15% of the nominal concentrations.

Another data set relates to Caco−2 cells. Description: Caco-2 Transwell transport of PF with and without verapamil. Format: in vitro ADME. The following applies: with/without verapamil, p < 0.05. The method, then: (§1) The Caco−2 cells were purchased from ATCC (Manassas, VA, USA) and cultured in a DMEM high-glucose medium with 15% FBS, 1% NEAA, and 100 U/mL penicillin and streptomycin. A total of 1.25 × 10^5 cells/cm^2 were seeded into […] (PET) in 96-well Falcon insert systems for 21–28 days to obtain a confluent cell monolayer. The test compounds were diluted with the transport buffer (HBSS with BSA) obtained from a 10 mM stock solution to a concentration of 10 µM and applied to the apical or basolateral sides of the cell monolayer. The permeation of the test compounds from A to B directions or B to A directions was determined in duplicate over a 120-min incubation period at 37 °C and 5% CO2 with a relative humidity of 95%. In addition, the efflux ratio of each compound was also determined. Test and reference compounds were quantified by LC-MS/MS analysis based on the peak area ratio of analyte/IS. The apparent permeability coefficient, Papp (cm/s), was calculated using the following equation:Papp = (dCr/dt) × Vr/(A × C0) where dCr/dt is the cumulative concentration of the compound in the receiver chamber as a function of time (S); Vr is the solution volume in the receiver chamber (0.1 mL on the apical side and 0.25 mL on the basolateral side); A is the surface area for the transport, i.e., 0.0804 cm^2 for the area of the monolayer and C0 is the initial concentration in the donor chamber. The efflux ratio was calculated using the following equation:Efflux Ratio = Papp BA/Papp AB where Papp BA is the apparent permeability coefficient obtained from the BL to AP sides (cm/s), and Papp AB is the apparent permeability coefficient obtained from the AP to BL sides (cm/s).
On the technique in general: Caco-2 monolayers are a common model of the intestinal barrier.

Test in data set [4]: as above
Format: in vitro ADME. The conditions noted are these: human, Caco-2, absence of verapamil. As for the experimental part:
as §1

The next data set deals with Caco-2 cell. The conditions noted are these: Caco-2 monolayer cell; cited from earlier work.
Where [5] appears, read: male, Sprague-Dawley, rat, plasma, iv, 2 mg/kg, intravenous 2 mg/kg, n = 5.
Where [6] appears, read: male, Sprague-Dawley, rat, plasma, po, 5 mg/kg, oral mono-administration 5 mg/kg, n = 5.
Setting [7] is: male, Sprague-Dawley, rat, plasma, po, 10 mg/kg, oral mono-administration 10 mg/kg, n = 5.
[8] abbreviates: male, Sprague-Dawley, rat, plasma, po, 20 mg/kg, oral 20 mg/kg co-administration with verapamil (50 mg/kg), n = 5.
The mark [9] stands for this setting: male, Sprague-Dawley, rat, plasma, po, 20 mg/kg, oral mono-administration 20 mg/kg, n = 5.
The mark [10] stands for this setting: male, Sprague-Dawley, rat, plasma, po, 20 mg/kg, range over oral doses 5, 10, 20 mg/kg.
[11] abbreviates: male, Sprague-Dawley, rat, plasma, intravenous 2 mg/kg, n = 5.
Where [12] appears, read: oral 20 mg/kg with verapamil vs alone, p < 0.05.

Where two headings read alike, the source gives them in different places.

Broadly, the AUC(0-inf) is total exposure, with the tail of the curve extrapolated. The AUC(0-t) is exposure summed from dosing to a finite time, without extrapolation to infinity. Usually half-life stands for the time in which the quantity being followed falls by half. A word on the CL/F: it is the apparent clearance, not corrected for the fraction that reaches the circulation. Usually Cmax stands for the peak of the concentration-time curve. The Tmax is the time at which the peak concentration occurs. Broadly, the efflux ratio is the permeability from basolateral to apical divided by that in the opposite direction, in the common usage. In general, Papp A→B refers to how fast a substance crosses the layer from the apical side. Lower therefore signals poor permeation. As a reminder, the Papp B→A is the apparent permeability from the basolateral to the apical side of a cell layer.

For `C[C@@]12C[C@@]3(O)O[C@@H](O1)[C@]1(COC(=O)c4ccccc4)[C@H]3C[C@@]12O[C@@H]1O[C@H](CO)[C@@H](O)[C@H](O)[C@H]1O` [PF, paeoniflorin], in data set [1], the “solubility and permeability characteristics” value was “high solubility and low permeability”. In data set [2] (setting [5]), the AUC(0-inf) is 2400 ± 201 ng·h/mL, the AUC(0-t) is 2400 ± 202 ng·h/mL, the half-life was 54 ± 24 min and the MRT inf was 12 min. For the same compound, the bioavailability in data set [2] (male, Sprague-Dawley, rat, plasma, po, 5 mg/kg, oral mono-administration 5 mg/kg vs intravenous 2 mg/kg, read-out: F) came out at 1.3%. Besides, in data set [2] (setting [6]), the AUC(0-inf) is 74.7 ± 49.1 ng·h/mL, the AUC(0-t) was found to be 64.7 ± 44 ng·h/mL, the CL/F is 1640 mL/min/kg and the Cmax stood at 42.3 ± 17.5 ng/mL. Also, in data set [2] (setting [6]), the Tmax is 30 min, the half-life is 48 ± 24 min, the MRT inf came out at 78 ± 30 min and the Vd/F turned out to be 85.7 ± 21.1 L/kg. In addition, the bioavailability in data set [2] (male, Sprague-Dawley, rat, plasma, po, 10 mg/kg, oral mono-administration 10 mg/kg vs intravenous 2 mg/kg, read-out: F) came out at 0.7%. Also, in data set [2] (setting [7]), the AUC(0-inf) amounted to 84 ± 17 ng·h/mL, the exposure AUC(0-t) was found to be 82.3 ± 18.4 ng·h/mL, the CL/F was 2050 mL/min/kg and the Cmax came to 63.4 ± 11.4 ng/mL. In data set [2] (setting [7]), the time of peak concentration (Tmax) was 30 min, the half-life was 30 ± 6 min, the MRT inf was 60 ± 12 min and the Vd/F is 89 ± 7.1 L/kg. In data set [2] (setting [8]), the AUC(0-inf) is 892 ± 487 ng·h/mL, the AUC(0-t) came to 882 ± 491 ng·h/mL, the apparent clearance (CL/F) is 487 mL/min/kg and the Cmax came out at 464 ± 237 ng/mL. In data set [2] (setting [8]), the Tmax worked out at 42 ± 18 min, the half-life is 42 ± 6 min, the MRT inf amounted to 90 ± 6 min and the Vd/F worked out at 31.5 ± 20.3 L/kg. In addition, the bioavailability in data set [2] (male, Sprague-Dawley, rat, plasma, po, 20 mg/kg, oral 20 mg/kg co-administration with verapamil vs intravenous 2 mg/kg, read-out: F) turned out to be 3.7%. The bioavailability in data set [2] (male, Sprague-Dawley, rat, plasma, po, 20 mg/kg, oral mono-administration 20 mg/kg vs intravenous 2 mg/kg, read-out: F) was found to be 0.6%. In addition, in data set [2] (setting [9]), the AUC(0-inf) is 157 ± 65.3 ng·h/mL, the area under the curve AUC(0-t) came to 149 ± 64.8 ng·h/mL, the CL/F was 2420 mL/min/kg and the Cmax is 100 ± 42.5 ng/mL. In data set [2] (setting [9]), the Tmax stood at 42 ± 18 min, the half-life is 30 ± 6 min, the MRT inf is 72 ± 6 min and the Vd/F came out at 112 ± 45.7 L/kg. In addition, in data set [2] (setting [10]), the CL/F was 1640 to 2420 mL/min/kg, the time of peak concentration (Tmax) lay within 30 to 42 min and the half-life lay within 30 to 48 min. For the same compound, the bioavailability in data set [2] (male, Sprague-Dawley, rat, plasma, po, 20 mg/kg, range over oral doses 5, 10, 20 mg/kg, read-out: absolute oral bioavailability) was 0.6 to 1.3%. In data set [2] (setting [11]), the C0 worked out at 11200 ng/mL and the clearance was 13.3 mL/min/kg. In addition, in data set [2] (male, Sprague-Dawley, rat, plasma, intravenous 2 mg/kg, n = 5, read-out: Vz), the Vd stood at 0.2 L/kg. In addition, the Cmax in data set [2] (oral 5 mg/kg) turned out to be 42.3 ± 17.5 ng/mL. The Cmax in data set [2] (oral 10 mg/kg) stood at 63.4 ± 11.4 ng/mL. Further, the Cmax in data set [2] (oral 20 mg/kg) was 100 ± 42.5 ng/mL. Moreover, the “increase of Cmax, co-administration vs mono-administration” value in data set [2] (oral 20 mg/kg with verapamil vs alone, p < 0.01) is 4.6 times. In data set [2] (setting [12]), the “increase of AUC0–t, co-administration vs mono-administration” value is 5.9 times and the “increase of AUC0–∞, co-administration vs mono-administration” value turned out to be 5.7 times. Besides, the “Tmax, T1/2 and MRT0–∞, co-administration vs mono-administration” value in data set [2] (oral 20 mg/kg with verapamil vs alone, statistical analysis) was “no significant difference”. The “stability in SD rat plasma” value in data set [3] (16 h bench-top, 72 h autosampler, 4 freeze-thaw cycles at −20 °C, 90 days at −20 °C) is reported as “stable”. Moreover, in data set [3] (nominal 3.0 ng/mL), the “Freeze-thaw Stability, Measured Conc.” value came out at 3.14 ± 0.17 ng/mL; the “Bench-top Stability, Measured Conc.” value stood at 3.01 ± 0.21 ng/mL; the “Long-term Stability, Measured Conc.” value is given as 2.86 ± 0.20 ng/mL; the “Autosampler Stability, Measured Conc.” value came out at 2.91 ± 0.16 ng/mL. For the same compound, in data set [3] (nominal 1500 ng/mL), the “Freeze-thaw Stability, Measured Conc.” value is 1662 ± 44.5 ng/mL; the “Bench-top Stability, Measured Conc.” value turned out to be 1538 ± 52.0 ng/mL; the “Long-term Stability, Measured Conc.” value was found to be 1500 ± 37.4 ng/mL; the “Autosampler Stability, Measured Conc.” value was 1535 ± 54.7 ng/mL. The P-gp substrate status result in the data set on Caco−2 cells is “may be a substrate for the P-gp efflux transporter”. Moreover, the efflux ratio at 120 min, 10 µM in data set [4] was found to be 1.52. In data set [4] (10 µM, 120 min), this compound came in with a Papp A→B at 120 min, 10 µM of 0.17 ×10⁻⁶ cm/s and a Papp B→A at 120 min, 10 µM of 0.26 ×10⁻⁶ cm/s. For the same compound, the efflux rate constant entry in the data set with Caco-2 cell is “higher than 2”.

With `O=c1c(O[C@@H]2O[C@H](CO)[C@H](O)[C@H](O)[C@H]2O)c(-c2ccc(O)c(O)c2)oc2cc(O)cc(O)c12` [hyperoside], the BCS class entry in data set [1] was “III/IV”.

For `COc1cc2c3c(c1OC)-c1ccccc1C[C@H]3N(C)CC2` [nuciferine], the BCS class result in data set [1] is “III/IV”.

Regarding `C[C@@H]1O[C@@H](OC[C@H]2O[C@@H](Oc3c(-c4ccc(O)c(O)c4)oc4cc(O)cc(O)c4c3=O)[C@H](O)[C@@H](O)[C@@H]2O)[C@H](O)[C@H](O)[C@H]1O` [rutin], the BCS class result in data set [1] is given as “III/IV”.

Regarding salvianolic acid B, the BCS class result in data set [1] was “III/IV”.

The values above are taken from PMC9737983, “Quantification of Paeoniflorin by Fully Validated LC–MS/MS Method: Its Application to Pharmacokinetic Interaction between Paeoniflorin and Verapamil” (Molecules, 2022).
